From patent US20110165226A1, “INFLUENZA CAP-LEADER SEQUENCE” (priority 2008, published 2011)

System: Influenza virus strain A/Puerto Rico/8/34 (H1/N1)
Assay type: biochemical

Row | Substance | transcripts containing capped leaders originating from the mutant
1 | C9A10G11C12: leader length construct, CAGC within oligo U stretch, first base pairing A at position 10 (DNA CGACTCACTATAGTATTTTTCAGCTTTTTTTTTTCAAAATATTCCAAT; chemistry not fully specified; the letters are possibly those of the target site) | 9 transcripts
2 | C10A11G12C13: leader length construct, CAGC within oligo U stretch, first base pairing A at position 11 (DNA CGACTCACTATAGTATTTTTTCAGCTTTTTTTTTCAAAATATTCCAAT; chemistry not fully specified; the letters are possibly those of the target site) | 5 transcripts
